Experimental data taken from patent US12295936B2, “Immunomodulating urea azalides” (Zoetis Services LLC, priority 2020, dated 2025).

Experiments:
TNF-α = assay: LPS-stimulated whole bovine blood assay, MSD cytokine detection; format: cell-based; conditions: Bos taurus, LPS-stimulated bovine whole blood; read-out: TNF-α (IC50 μM)
IL-1β = assay: as above; format: cell-based; conditions: overstimulation of IL-1β, LPS-stimulated bovine whole blood
IL-6 = assay: as above; format: cell-based; conditions: Bos taurus, LPS-stimulated bovine whole blood; read-out: IL-6 (IC50 μM)
Description: In order to correlate RNA sequencing data to cytokine changes the whole blood assay was utilized. […] The enhancement result represents an overall stimulation of cytokine levels due to cellular stress or potential toxicity with increasing concentrations of the compound, representing a typical bell shape response curve for immunomodulatory activity.

[1] = system: BRD pathogens, M. haemolytica and P. multocida; assay: MIC screening panel of BRD pathogens (antibacterial / non-antibacterial); conditions: read-out: antibacterial / non-antibacterial (MIC for the BRD pathogens)

Structure (SMILES)	IC50 (TNF-α)	IL-1β OS of LPS (IL-1β)	IC50 (IL-6)	MIC [1]
CCCNC[C@]1(O)[C@H](C)O[C@@H](O[C@H]2[C@H](C)[C@@H](O[C@@H]3O[C@H](C)C[C@H](N(C)C(=O)N(C)c4ccccc4)[C@H]3O)[C@](C)(O)C[C@@H](C)CN(CCC)[C@H](C)[C@@H](O)[C@](C)(O)[C@@H](CC)OC(=O)[C@@H]2C)C[C@@]1(C)OC [Example H-102, 1-((2S,3R,4S,6R)-2-(((2R,3S,4R,5R,8R,10R,11R,12S,13S,14R)-2-ethyl-3,4,10-trihydroxy-13-(((2R,4R,5S,6S)-5-hydroxy-4-methoxy-4,6-dimethyl-5-((propylamino)methyl)tetrahydro-2H-pyran-2-yl)oxy)-3,5,8,10,12,14-hexamethyl-15-oxo-6-propyl-1-oxa-6-azacyclopentadecan-11-yl)oxy)-3-hydroxy-6-methyltetrahydro-2H-pyran-4-yl)-1,3-dimethyl-3-phenylurea]	8 µM	8 µM	11 µM	> 64 µg/mL
CC[C@H]1OC(=O)[C@H](C)[C@@H](O[C@H]2C[C@@](C)(OC)[C@](O)(CN3CCOCC3)[C@H](C)O2)[C@H](C)[C@@H](O[C@@H]2O[C@H](C)C[C@H](N(C)C(=O)N(C)c3ccccc3)[C@H]2O)[C@](C)(O)C[C@@H](C)CN[C@H](C)[C@@H](O)[C@]1(C)O [Example J-10, 1-((2S,3R,4S,6R)-2-(((2R,3S,4R,5R,8R,10R,11R,12S,13S,14R)-2-ethyl-3,4,10-trihydroxy-13-(((2R,4R,5S,6S)-5-hydroxy-4-methoxy-4,6-dimethyl-5-(morpholinomethyl)tetrahydro-2H-pyran-2-yl)oxy)-3,5,8,10,12,14-hexamethyl-15-oxo-1-oxa-6-azacyclopentadecan-11-yl)oxy)-3-hydroxy-6-methyltetrahydro-2H-pyran-4-yl)-1,3-dimethyl-3-phenylurea]	20 µM	40 µM	45 µM	> 64 µg/mL
CCCNC[C@]1(O)[C@H](C)O[C@@H](O[C@H]2[C@H](C)[C@@H](O[C@@H]3O[C@H](C)C[C@H](N(C)C(=O)N(C)c4ncc(Cl)cn4)[C@H]3O)[C@](C)(O)C[C@@H](C)CN[C@H](C)[C@@H](O)[C@](C)(O)[C@@H](CC)OC(=O)[C@@H]2C)C[C@@]1(C)OC [Example H-51, 1-(5-chloropyrimidin-2-yl)-3-((2S,3R,4S,6R)-2-(((2R,3S,4R,5R,8R,10R,11R,12S,13S,14R)-2-ethyl-3,4,10-trihydroxy-13-(((2R,4R,5S,6S)-5-hydroxy-4-methoxy-4,6-dimethyl-5-((propylamino)methyl)tetrahydro-2H-pyran-2-yl)oxy)-3,5,8,10,12,14-hexamethyl-15-oxo-1-oxa-6-azacyclopentadecan-11-yl)oxy)-3-hydroxy-6-methyltetrahydro-2H-pyran-4-yl)-1,3-dimethylurea]	26 µM	40 µM	52 µM	> 64 µg/mL
CC[C@H]1OC(=O)[C@H](C)[C@@H](O[C@H]2C[C@@](C)(OC)[C@](O)(CNCCC(C)C)[C@H](C)O2)[C@H](C)[C@@H](O[C@@H]2O[C@H](C)C[C@H](N(C)C(=O)N(C)c3ccccc3)[C@H]2O)[C@](C)(O)C[C@@H](C)CN[C@H](C)[C@@H](O)[C@]1(C)O [Example H-29, 1-((2S,3R,4S,6R)-2-(((2R,3S,4R,5R,8R,10R,11R,12S,13S,14R)-2-ethyl-3,4,10-trihydroxy-13-(((2R,4R,5S,6S)-5-hydroxy-5-((isopentylamino)methyl)-4-methoxy-4,6-dimethyltetrahydro-2H-pyran-2-yl)oxy)-3,5,8,10,12,14-hexamethyl-15-oxo-1-oxa-6-azacyclopentadecan-11-yl)oxy)-3-hydroxy-6-methyltetrahydro-2H-pyran-4-yl)-1,3-dimethyl-3-phenylurea]	50 µM	3 µM	50 µM	> 64 µg/mL
